The results in this text go back to ChEMBL document CHEMBL5465560, “Selectivity Literature for EUbOPEN Chemogenomic Library” (2024).

Assay [1] addresses Cyclin-dependent kinase 15 (Homo sapiens) (UniProt Q96Q40). Briefly: Selectivity interaction (KinomeScan (DiscoverX)) EUB0000695a CDK15. To be noted: at 100 nM.
Assay [2] deals with T1, Cytoplasmic tyrosine-protein kinase BMX (Homo sapiens) (UniProt P51813).
T1 sequence (whole entry): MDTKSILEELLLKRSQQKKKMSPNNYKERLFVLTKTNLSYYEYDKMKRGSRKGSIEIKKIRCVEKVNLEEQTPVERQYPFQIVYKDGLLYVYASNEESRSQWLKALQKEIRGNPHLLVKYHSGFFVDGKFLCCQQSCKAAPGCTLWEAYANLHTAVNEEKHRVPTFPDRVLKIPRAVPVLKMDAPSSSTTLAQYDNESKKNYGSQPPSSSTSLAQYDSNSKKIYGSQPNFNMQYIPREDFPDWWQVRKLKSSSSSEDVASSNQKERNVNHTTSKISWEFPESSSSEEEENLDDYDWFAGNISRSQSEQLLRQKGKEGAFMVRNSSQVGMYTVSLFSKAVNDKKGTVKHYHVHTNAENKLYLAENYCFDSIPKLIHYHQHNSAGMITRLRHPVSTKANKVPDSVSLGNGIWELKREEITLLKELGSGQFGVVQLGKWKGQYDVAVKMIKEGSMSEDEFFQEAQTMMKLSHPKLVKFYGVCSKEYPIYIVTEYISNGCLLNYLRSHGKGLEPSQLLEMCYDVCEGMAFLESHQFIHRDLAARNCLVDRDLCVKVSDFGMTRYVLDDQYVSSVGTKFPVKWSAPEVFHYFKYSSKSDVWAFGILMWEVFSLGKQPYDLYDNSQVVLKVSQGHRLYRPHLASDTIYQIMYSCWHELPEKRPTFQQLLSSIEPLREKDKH
Kind of assay: Selectivity interaction (KinaseProfiler screening (Millipore)) EUB0000601a BMX. To be noted: at 3 µM.

The target in assay [3] is Serine/threonine-protein kinase Nek7 (Homo sapiens) (UniProt Q8TDX7). Briefly: Selectivity interaction (Kinase panel (DSF assay)) EUB0001559a NEK7. On the technique in general: In DSF a fluorescence change marks the thermal transition of the protein.
Chain of Serine/threonine-protein kinase Nek7 (Homo sapiens) (Q8TDX7 whole entry, looked up): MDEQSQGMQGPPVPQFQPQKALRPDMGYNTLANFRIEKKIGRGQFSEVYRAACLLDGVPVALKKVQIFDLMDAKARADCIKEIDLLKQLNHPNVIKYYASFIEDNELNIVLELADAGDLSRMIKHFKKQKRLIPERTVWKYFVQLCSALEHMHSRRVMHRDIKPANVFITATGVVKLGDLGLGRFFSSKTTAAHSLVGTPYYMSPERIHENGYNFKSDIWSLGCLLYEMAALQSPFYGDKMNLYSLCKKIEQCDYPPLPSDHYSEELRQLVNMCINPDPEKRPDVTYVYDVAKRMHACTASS
For assay [4], the target named is T2, Ribosomal protein S6 kinase alpha-6 (Homo sapiens, UniProt Q9UK32). Kind of assay: Selectivity interaction (ProQinase) EUB0000171b RPS6KA6.
T2 sequence (Q9UK32 whole entry): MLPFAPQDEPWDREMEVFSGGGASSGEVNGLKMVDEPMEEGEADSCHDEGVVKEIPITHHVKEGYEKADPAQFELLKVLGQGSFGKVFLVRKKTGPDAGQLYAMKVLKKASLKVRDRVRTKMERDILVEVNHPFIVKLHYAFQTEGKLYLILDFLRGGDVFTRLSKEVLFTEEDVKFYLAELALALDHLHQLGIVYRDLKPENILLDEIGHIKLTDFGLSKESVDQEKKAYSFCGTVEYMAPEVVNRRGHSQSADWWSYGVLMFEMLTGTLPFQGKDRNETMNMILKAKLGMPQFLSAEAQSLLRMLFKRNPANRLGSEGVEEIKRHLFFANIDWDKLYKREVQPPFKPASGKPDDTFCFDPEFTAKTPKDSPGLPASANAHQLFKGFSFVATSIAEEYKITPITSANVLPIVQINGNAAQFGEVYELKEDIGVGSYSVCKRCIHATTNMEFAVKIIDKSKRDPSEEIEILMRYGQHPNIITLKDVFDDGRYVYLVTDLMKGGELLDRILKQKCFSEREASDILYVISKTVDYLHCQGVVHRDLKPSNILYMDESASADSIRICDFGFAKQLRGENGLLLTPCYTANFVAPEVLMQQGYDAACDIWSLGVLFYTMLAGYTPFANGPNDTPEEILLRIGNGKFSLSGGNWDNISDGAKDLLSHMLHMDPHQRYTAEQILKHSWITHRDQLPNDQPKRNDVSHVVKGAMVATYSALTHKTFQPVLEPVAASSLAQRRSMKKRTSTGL
Assay [5] deals with Bone morphogenetic protein receptor type-1A (Homo sapiens, UniProt P36894). Kind of assay: Selectivity interaction (Ambit KINOMEscan and KiNATiv profiling in Jurkat cells) EUB0000090b BMPR1A. To be noted: at 1 µM. It is filed as cell-based.
Chain of Bone morphogenetic protein receptor type-1A (P36894 whole entry): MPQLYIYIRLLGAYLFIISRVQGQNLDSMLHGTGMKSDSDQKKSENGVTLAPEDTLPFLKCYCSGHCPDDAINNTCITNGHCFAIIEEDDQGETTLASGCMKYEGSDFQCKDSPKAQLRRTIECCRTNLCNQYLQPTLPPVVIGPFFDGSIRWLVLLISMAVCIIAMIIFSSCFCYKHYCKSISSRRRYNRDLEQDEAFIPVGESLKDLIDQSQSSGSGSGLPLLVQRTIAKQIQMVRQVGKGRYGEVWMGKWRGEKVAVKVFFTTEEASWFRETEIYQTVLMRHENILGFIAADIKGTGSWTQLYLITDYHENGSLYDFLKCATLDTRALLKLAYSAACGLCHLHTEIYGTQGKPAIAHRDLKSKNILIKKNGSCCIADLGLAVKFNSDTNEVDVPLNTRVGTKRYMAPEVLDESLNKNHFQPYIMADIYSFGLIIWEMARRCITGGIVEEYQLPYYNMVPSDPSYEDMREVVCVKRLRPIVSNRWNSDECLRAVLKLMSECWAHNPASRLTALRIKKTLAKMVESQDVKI
Assay [6] deals with CDK4/Cyclin D3 (Homo sapiens) (UniProt P11802+P30281). Kind of assay: (§1) Selectivity interaction (KinomeScan (DiscoverX)) EUB0001049a CDK4. Type of assay: protein-complex assay. To be noted: at 1 µM.
The target in assay [7] is Cyclin-dependent kinase 4/cyclin D1 (Homo sapiens) (UniProt P11802+P24385). The description is as §1. Type of assay: protein-complex assay. To be noted: at 1 µM.
Assay [8] addresses Leukocyte tyrosine kinase receptor (Homo sapiens, UniProt P29376). Kind of assay: Selectivity interaction (KinomeScan (DiscoverX)) EUB0000655a LTK. To be noted: at 10 µM.
Assay [9] deals with Ribosomal protein S6 kinase alpha-5 (Homo sapiens) (UniProt O75582). Briefly: Selectivity interaction (KinomeScan (DiscoverX)) EUB0000655a RPS6KA5. To be noted: at 10 µM.
Chain of Ribosomal protein S6 kinase alpha-5 (Homo sapiens) (O75582 whole entry, looked up): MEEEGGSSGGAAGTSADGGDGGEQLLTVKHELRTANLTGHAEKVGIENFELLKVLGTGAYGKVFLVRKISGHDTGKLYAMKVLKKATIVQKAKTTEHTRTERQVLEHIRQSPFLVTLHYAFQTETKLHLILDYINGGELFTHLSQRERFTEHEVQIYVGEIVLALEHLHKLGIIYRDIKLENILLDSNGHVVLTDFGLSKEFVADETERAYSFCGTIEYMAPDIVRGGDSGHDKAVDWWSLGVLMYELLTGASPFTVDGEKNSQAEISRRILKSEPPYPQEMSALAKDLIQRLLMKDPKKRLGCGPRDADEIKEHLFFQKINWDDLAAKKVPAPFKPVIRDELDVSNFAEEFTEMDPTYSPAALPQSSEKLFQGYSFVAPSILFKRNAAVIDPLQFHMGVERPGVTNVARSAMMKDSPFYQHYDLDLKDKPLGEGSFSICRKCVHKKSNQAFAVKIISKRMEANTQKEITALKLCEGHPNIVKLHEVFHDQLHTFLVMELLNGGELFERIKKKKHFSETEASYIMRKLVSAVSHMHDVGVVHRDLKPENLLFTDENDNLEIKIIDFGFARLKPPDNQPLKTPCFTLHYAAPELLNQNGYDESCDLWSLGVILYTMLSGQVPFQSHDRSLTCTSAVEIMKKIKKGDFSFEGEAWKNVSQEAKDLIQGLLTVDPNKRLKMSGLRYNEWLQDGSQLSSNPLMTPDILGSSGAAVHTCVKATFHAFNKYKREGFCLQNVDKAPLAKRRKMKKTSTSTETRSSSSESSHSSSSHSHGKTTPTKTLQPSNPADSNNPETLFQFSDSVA
The target in assay [10] is T2, Ribosomal protein S6 kinase alpha-6. Kind of assay: Selectivity interaction (KinomeScan (DiscoverX)) EUB0000618a RPS6KA6. To be noted: at 10 µM.
In assay [11] the target is Bromodomain-containing protein 7 (Homo sapiens) (UniProt Q9NPI1). Briefly: Selectivity interaction (Human bromodomain panel (DSF assay)) EUB0000233b BRD7.
Chain of Bromodomain-containing protein 7 (Homo sapiens) (Q9NPI1 whole entry): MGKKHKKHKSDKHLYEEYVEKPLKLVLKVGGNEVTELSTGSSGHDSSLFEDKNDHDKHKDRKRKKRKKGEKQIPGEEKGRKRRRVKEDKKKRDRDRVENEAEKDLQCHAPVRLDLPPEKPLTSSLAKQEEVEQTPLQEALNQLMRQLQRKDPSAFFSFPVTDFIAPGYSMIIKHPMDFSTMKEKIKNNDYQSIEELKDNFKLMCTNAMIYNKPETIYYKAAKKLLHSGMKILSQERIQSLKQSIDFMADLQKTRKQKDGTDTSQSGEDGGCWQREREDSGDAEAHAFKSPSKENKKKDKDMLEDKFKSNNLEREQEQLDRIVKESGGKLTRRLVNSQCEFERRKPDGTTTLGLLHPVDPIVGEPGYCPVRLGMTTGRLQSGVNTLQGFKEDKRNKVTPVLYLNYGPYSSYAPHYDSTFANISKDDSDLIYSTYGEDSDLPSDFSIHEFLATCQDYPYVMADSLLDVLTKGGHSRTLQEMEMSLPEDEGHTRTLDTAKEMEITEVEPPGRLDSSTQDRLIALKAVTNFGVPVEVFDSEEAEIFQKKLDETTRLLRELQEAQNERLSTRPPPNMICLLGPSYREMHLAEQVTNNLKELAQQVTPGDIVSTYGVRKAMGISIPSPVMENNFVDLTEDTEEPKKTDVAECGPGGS
Assay [12] addresses T3, Cyclin-dependent kinase-like 5 (Homo sapiens) (UniProt O76039).
T3 sequence (whole entry): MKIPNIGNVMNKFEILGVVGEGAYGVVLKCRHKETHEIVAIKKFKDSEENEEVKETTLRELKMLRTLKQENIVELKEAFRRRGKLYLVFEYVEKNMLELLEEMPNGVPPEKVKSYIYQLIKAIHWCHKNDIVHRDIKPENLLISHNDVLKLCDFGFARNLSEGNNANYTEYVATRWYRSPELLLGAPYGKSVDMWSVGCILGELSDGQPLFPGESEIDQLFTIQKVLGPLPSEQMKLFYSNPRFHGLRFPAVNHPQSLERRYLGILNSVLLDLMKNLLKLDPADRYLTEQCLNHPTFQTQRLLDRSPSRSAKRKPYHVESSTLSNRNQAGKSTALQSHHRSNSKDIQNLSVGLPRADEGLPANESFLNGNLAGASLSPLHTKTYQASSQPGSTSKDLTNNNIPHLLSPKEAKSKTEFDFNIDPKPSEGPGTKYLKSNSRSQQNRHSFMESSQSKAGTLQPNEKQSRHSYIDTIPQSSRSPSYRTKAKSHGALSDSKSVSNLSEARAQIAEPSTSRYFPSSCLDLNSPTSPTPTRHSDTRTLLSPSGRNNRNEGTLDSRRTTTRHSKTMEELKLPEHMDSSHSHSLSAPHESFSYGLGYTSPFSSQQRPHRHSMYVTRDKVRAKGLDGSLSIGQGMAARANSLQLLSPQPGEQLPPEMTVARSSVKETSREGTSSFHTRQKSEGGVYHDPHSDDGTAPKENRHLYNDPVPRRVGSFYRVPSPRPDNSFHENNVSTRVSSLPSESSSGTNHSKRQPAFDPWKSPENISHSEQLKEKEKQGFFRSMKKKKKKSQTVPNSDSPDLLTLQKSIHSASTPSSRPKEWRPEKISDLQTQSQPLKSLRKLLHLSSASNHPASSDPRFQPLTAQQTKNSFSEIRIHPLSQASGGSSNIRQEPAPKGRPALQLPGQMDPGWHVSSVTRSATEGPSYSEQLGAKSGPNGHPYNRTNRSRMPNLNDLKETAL
Briefly: Selectivity interaction (KinomeScan (DiscoverX)) EUB0001079a CDKL5. To be noted: at 1 µM.

Chain of Leukocyte tyrosine kinase receptor (P29376 whole entry): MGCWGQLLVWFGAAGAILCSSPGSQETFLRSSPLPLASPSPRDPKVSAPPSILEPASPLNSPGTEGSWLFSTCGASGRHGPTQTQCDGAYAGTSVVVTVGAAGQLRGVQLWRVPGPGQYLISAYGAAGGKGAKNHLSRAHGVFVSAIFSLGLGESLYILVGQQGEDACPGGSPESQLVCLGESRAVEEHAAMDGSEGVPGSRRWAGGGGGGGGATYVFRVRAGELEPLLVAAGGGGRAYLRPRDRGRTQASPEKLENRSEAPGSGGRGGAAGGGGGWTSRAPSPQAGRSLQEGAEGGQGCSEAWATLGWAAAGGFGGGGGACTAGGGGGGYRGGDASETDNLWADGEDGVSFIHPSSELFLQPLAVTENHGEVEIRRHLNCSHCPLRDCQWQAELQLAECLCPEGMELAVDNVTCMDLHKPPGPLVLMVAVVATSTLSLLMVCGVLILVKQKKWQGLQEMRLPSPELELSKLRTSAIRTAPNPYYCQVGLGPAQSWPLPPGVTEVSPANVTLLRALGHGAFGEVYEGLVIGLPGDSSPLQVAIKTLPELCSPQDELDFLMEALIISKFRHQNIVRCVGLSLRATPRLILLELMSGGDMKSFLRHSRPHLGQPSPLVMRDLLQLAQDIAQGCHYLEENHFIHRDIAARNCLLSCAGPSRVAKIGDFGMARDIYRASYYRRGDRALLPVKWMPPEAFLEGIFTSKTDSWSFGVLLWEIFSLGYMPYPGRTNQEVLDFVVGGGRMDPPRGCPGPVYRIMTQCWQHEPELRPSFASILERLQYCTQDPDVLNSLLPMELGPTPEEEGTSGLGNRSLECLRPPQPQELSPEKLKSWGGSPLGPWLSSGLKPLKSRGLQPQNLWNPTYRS
Chain of Cyclin-dependent kinase 15 (Homo sapiens) (Q96Q40 whole entry): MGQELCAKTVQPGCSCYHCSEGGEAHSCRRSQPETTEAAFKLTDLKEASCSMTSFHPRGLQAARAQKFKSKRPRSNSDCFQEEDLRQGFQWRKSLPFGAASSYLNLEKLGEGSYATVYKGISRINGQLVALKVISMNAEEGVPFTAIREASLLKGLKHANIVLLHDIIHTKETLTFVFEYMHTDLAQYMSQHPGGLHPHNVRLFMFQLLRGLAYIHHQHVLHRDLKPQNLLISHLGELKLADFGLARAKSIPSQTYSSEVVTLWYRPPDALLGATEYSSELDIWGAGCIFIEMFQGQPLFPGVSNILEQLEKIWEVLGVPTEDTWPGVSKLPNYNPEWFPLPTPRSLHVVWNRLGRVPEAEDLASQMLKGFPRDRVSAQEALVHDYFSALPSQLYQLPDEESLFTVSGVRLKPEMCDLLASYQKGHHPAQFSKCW

Take `Cc1cc(F)c(C(=O)Nc2cccc(-c3nncn3C(C)C)n2)cc1-n1cnc(C2CC2)c1`: the % of control in assay [1] is 100%. The molecule `CCc1cc(Nc2nccc(-c3c(-c4ccc(OC)c(C(=O)Nc5c(F)cccc5F)c4)nc4ccccn34)n2)c(OC)cc1N1CCC(N2CCN(S(C)(=O)=O)CC2)CC1` displayed a % of inhibition in [2] of 71%. `CN(C(=O)c1cnn2cccnc12)c1cc2c(cc1N1CCOCC1)C(=O)N(C[C@@H](F)C(C)(C)O)C2`: the dTM in assay [3] stood at 0.5 K. On to `C=CC(=O)Nc1cccc(C(=O)Nc2ccc(Nc3cc(-c4[nH]c(SC)nc4C)ccn3)cc2)c1`, for which the % of control is 88% in assay [4] (at 1 µM) and 68% in assay [4] (at 5 µM).

As to `CN(C)C/C=C/C(=O)Nc1ccc(C(=O)N2CCCC(Nc3ncc(Cl)c(-c4c[nH]c5ccccc45)n3)C2)cc1` (stereo not drawn), the % of control in assay [5] is 100%. In the case of `COc1cc(Nc2nc(C)cc(-c3cnn4nc(OC)ccc34)n2)cc(C(F)(F)F)c1`, the results for the % of control in assay [6] and in assay [7] were 98% and 100%, respectively.

`CN(C)CCOc1ccc(-c2nc(-c3ccncc3)c(-c3ccc4c(c3)CC/C4=N\O)[nH]2)cc1`: the % of control in [8] was 67%; in [9], 90%. As for `O[C@H]1CC[C@H](Nc2ncc3nc(Nc4c(F)cc(F)cc4F)n([C@H]4CCOC4)c3n2)CC1`, the % of control in [10] is 49%. Molecule `CN(C)CCCOc1ccc(-c2cc(NCCCn3cccn3)nc(S(C)(=O)=O)n2)cc1` yielded a dTM in [11] of 4 K. `Nc1cnc(N2CCc3cc(S(=O)(=O)Nc4c(F)cc(Cl)cc4F)cc(N4CCCC4=O)c32)nc1` [TP-020n] returned a % of control in assay [12] of 88%.
